Measured values taken from patent US20100286173A1 (priority 2008, published 2010).

test: Measurement of logP values by HPLC on reversed phase columns (EEC directive 79/831 Annex V.A8); format: physicochemical; settings: pH 2.7, 0.1% formic acid in water / acetonitrile gradient 10% to 95%

`Cc1cccc(C(=NOCc2cccc(NC(=O)CC(C)C)n2)c2nnnn2C)c1F` [Example 33] and `Cc1c(F)cccc1C(=NOCc1cccc(NC(=O)CC(C)C)n1)c1nnnn1C` [Example 73] are within 0.2 log units of each other in logp: 3.51 for the first, 3.53 for the second.

Compared with `Cc1cc(OC(F)(F)F)ccc1C(=NOCc1cccc(NC(=O)CC(C)C)n1)c1nnnn1C` [Example 34], `Cc1ccc(C(F)(F)F)cc1C(=NOCc1cccc(NC(=O)CC(C)C)n1)c1nnnn1C` [Example 64] is lower in logp: 4.16 for the first, 3.94 for the second.

`Cc1ccc(Cl)c(C(=NOCc2cccc(NC(=O)CC(C)C)n2)c2nnnn2C)c1` [Example 35] and `Cc1ccc(C(=NOCc2cccc(NC(=O)CC(C)C)n2)c2nnnn2C)c(Cl)c1` [Example 40] are the same in logp: 3.73 for the first, 3.73 for the second.

`Cc1cc(C(=NOCc2cccc(NC(=O)CC(C)C)n2)c2nnnn2C)ccc1F` [Example 37] and `Cc1ccc(F)c(C(=NOCc2cccc(NC(=O)CC(C)C)n2)c2nnnn2C)c1` [Example 48] are within 0.2 log units of each other in logp: 3.67 for the first, 3.53 for the second.

`Cc1ccc(C(=NOCc2cccc(NC(=O)CC(C)C)n2)c2nnnn2C)c(F)c1` [Example 38] and `Cc1ccc(F)c(C(=NOCc2cccc(NC(=O)CC(C)C)n2)c2nnnn2C)c1` [Example 75] are within 0.2 log units of each other in logp: 3.53 for the first, 3.42 for the second.

`CCCCCOC(=O)Nc1cccc(CON=C(c2cc(C)cc(C)c2)c2nnnn2C)n1` [Example 39] and `CCCCCOC(=O)Nc1cccc(CON=C(c2ccc(C)cc2Cl)c2nnnn2C)n1` [Example 91] are within 0.2 log units of each other in logp: 4.86 for the first, 4.7 for the second.

`CCCCCC(=O)Nc1cccc(CON=C(c2cc(C)ccc2F)c2nnnn2C)n1` [Example 42] and `CCCCCC(=O)Nc1cccc(CON=C(c2ccc(C)cc2F)c2nnnn2C)n1` [Example 115] are within 0.2 log units of each other in logp: 3.83 for the first, 3.92 for the second.

Going from `Cc1ccc(C(=NOCc2cccc(NC(=O)CC(C)C)n2)c2nnnn2C)cc1C(F)(F)F` [Example 43] to `CC(C)CC(=O)Nc1cccc(CON=C(c2ccc(F)c(C(F)(F)F)c2)c2nnnn2C)n1` [Example 66], the logp falls from 4.16 to 3.94.

`CCCCCOC(=O)Nc1cccc(CON=C(c2cccc(C(F)(F)F)c2C)c2nnnn2C)n1` [Example 44] and `CCCCCOC(=O)Nc1cccc(CON=C(c2cccc(C(F)(F)F)c2Cl)c2nnnn2C)n1` [Example 87] are within 0.2 log units of each other in logp: 4.78 for the first, 4.81 for the second.

`CCCCCC(=O)Nc1cccc(CON=C(c2cc(F)cc(C(F)(F)F)c2)c2nnnn2C)n1` [Example 45] and `CCCCCC(=O)Nc1cccc(CON=C(c2cc(C)cc(F)c2)c2nnnn2C)n1` [Example 123] are within 0.2 log units of each other in logp: 4.29 for the first, 4.14 for the second.

Going from `Cc1ccc(C(=NOCc2cccc(NC(=O)CC(C)C)n2)c2nnnn2C)c(Cl)c1` [Example 46] to `Cc1ccc(Cl)c(C(=NOCc2cccc(NC(=O)CC(C)C)n2)c2nnnn2C)c1` [Example 62], the logp falls from 3.73 to 3.53.

Going from `Cc1ccc(C(=NOCc2cccc(NC(=O)CC(C)C)n2)c2nnnn2C)c(Cl)c1` [Example 51] to `CC(C)CC(=O)Nc1cccc(CON=C(c2cc(C(F)(F)F)ccc2Cl)c2nnnn2C)n1` [Example 63], the logp rises from 3.53 to 3.96.

First: CCCCCOC(=O)Nc1ccnc(CON=C(c2ccc(C)c(C(F)(F)F)c2)c2nnnn2C)n1 [Example 52]
Second: CCCCC(=O)Nc1ccnc(CON=C(c2ccc(C)c(C(F)(F)F)c2)c2nnnn2C)n1 [Example 90]
The logp of the first is higher: 4.62 for the first, 3.94 for the second.

Going from `C#CCCOC(=O)Nc1cccc(CON=C(c2ccc(F)c(C)c2)c2nnnn2C)n1` [Example 53] to `C=CCCOC(=O)Nc1cccc(CON=C(c2ccc(F)c(C)c2)c2nnnn2C)n1` [Example 55], the logp rises from 3.55 to 3.92.

`C=CCOC(=O)Nc1cccc(CON=C(c2ccc(F)c(C)c2)c2nnnn2C)n1` [Example 56] and `CC#CCOC(=O)Nc1cccc(CON=C(c2ccc(F)c(C)c2)c2nnnn2C)n1` [Example 101] are within 0.2 log units of each other in logp: 3.63 for the first, 3.67 for the second.

`Cc1cc(C(=NOCc2cccc(NC(=O)CCOc3ccccc3)n2)c2nnnn2C)ccc1F` [Example 57] and `COc1ccccc1CC(=O)Nc1cccc(CON=C(c2ccc(F)c(C)c2)c2nnnn2C)n1` [Example 61] are within 0.2 log units of each other in logp: 3.87 for the first, 3.9 for the second.

Compared with `Cc1cc(C(=NOCc2cccc(NC(=O)CCC3CCCC3)n2)c2nnnn2C)ccc1F` [Example 58], `CCCCCC(=O)Nc1cccc(CON=C(c2ccc(F)c(C)c2)c2nnnn2C)n1` [Example 119] is lower in logp: 4.56 for the first, 4.11 for the second.

`COc1ccc(CC(=O)Nc2cccc(CON=C(c3ccc(F)c(C)c3)c3nnnn3C)n2)cc1` [Example 59] and `COc1cccc(CC(=O)Nc2cccc(CON=C(c3ccc(F)c(C)c3)c3nnnn3C)n2)c1` [Example 60] are within 0.2 log units of each other in logp: 3.68 for the first, 3.72 for the second.

Compared with `CC(C)CC(=O)Nc1cccc(CON=C(c2cc(F)cc(C(F)(F)F)c2)c2nnnn2C)n1` [Example 65], `Cc1ccc(C(F)(F)F)cc1C(=NOCc1cccc(NC(=O)CC(C)C)n1)c1nnnn1C` [Example 67] is lower in logp: 3.89 for the first, 3.62 for the second.

`Cc1ccc(C(=NOCc2cccc(NC(=O)CC(C)C)n2)c2nnnn2C)cc1C(F)(F)F` [Example 69] and `CC(C)CC(=O)Nc1cccc(CON=C(c2ccc(Cl)c(C(F)(F)F)c2)c2nnnn2C)n1` [Example 70] are within 0.2 log units of each other in logp: 4.14 for the first, 4.26 for the second.

First: CC(C)CC(=O)Nc1cccc(CON=C(c2ccc(C(F)(F)F)c(Cl)c2)c2nnnn2C)n1 [Example 71]
Second: CCCCCC(=O)Nc1cccc(CON=C(c2ccc(C(F)(F)F)c(Cl)c2)c2nnnn2C)n1 [Example 107]
The logp of the first is lower: 4.29 for the first, 4.7 for the second.

`CCCCCOC(=O)Nc1cccc(CON=C(c2ccc(C)c(C(F)(F)F)c2)c2nnnn2C)n1` [Example 78] and `CCCCCOC(=O)Nc1cccc(CON=C(c2ccc(F)c(C(F)(F)F)c2)c2nnnn2C)n1` [Example 82] are within 0.2 log units of each other in logp: 5.05 for the first, 4.86 for the second.

`CCCCCOC(=O)Nc1cccc(CON=C(c2ccc(C(F)(F)F)c(Cl)c2)c2nnnn2C)n1` [Example 79] and `CCCCCOC(=O)Nc1cccc(CON=C(c2ccc(Cl)c(C(F)(F)F)c2)c2nnnn2C)n1` [Example 88] are within 0.2 log units of each other in logp: 5.23 for the first, 5.14 for the second.

`CCCCCOC(=O)Nc1cccc(CON=C(c2ccc(C)c(C(F)(F)F)c2)c2nnnn2C)n1` [Example 81] and `CCCCCOC(=O)Nc1cccc(CON=C(c2ccc(C(F)(F)F)c(Cl)c2)c2nnnn2C)n1` [Example 86] are within 0.2 log units of each other in logp: 5.08 for the first, 5.2 for the second.

`CCCCCOC(=O)Nc1cccc(CON=C(c2cc(C)ccc2Cl)c2nnnn2C)n1` [Example 83] and `CCCCCOC(=O)Nc1cccc(CON=C(c2ccc(C)cc2Cl)c2nnnn2C)n1` [Example 92] are the same in logp: 4.54 for the first, 4.54 for the second.

First: CCCCCOC(=O)Nc1cccc(CON=C(c2cc(C)ccc2Cl)c2nnnn2C)n1 [Example 84]
Second: CCCCCOC(=O)Nc1cccc(CON=C(c2cc(C)ccc2F)c2nnnn2C)n1 [Example 121]
The logp of the first is higher: 4.73 for the first, 4.19 for the second.

First: CCCCCC(=O)Nc1cccc(CON=C(c2ccc(C)c(C(F)(F)F)c2)c2nnnn2C)n1 [Example 89]
Second: CCCCCC(=O)Nc1cccc(CON=C(c2ccc(F)c(C(F)(F)F)c2)c2nnnn2C)n1 [Example 104]
The logp of the first is higher: 4.56 for the first, 4.36 for the second.

`CCCCCC(=O)Nc1cccc(CON=C(c2cc(C)ccc2F)c2nnnn2C)n1` [Example 100] and `CCCCCC(=O)Nc1cccc(CON=C(c2cccc(F)c2C)c2nnnn2C)n1` [Example 112] are within 0.2 log units of each other in logp: 3.92 for the first, 3.96 for the second.

Going from `CCCCCC(=O)Nc1cccc(CON=C(c2cccc(C)c2F)c2nnnn2C)n1` [Example 103] to `CCCCCC(=O)Nc1cccc(CON=C(c2cc(C(F)(F)F)ccc2C)c2nnnn2C)n1` [Example 111], the logp rises from 3.96 to 4.34.

`CCCCCC(=O)Nc1cccc(CON=C(c2cc(C(F)(F)F)ccc2Cl)c2nnnn2C)n1` [Example 106] and `CCCCCC(=O)Nc1cccc(CON=C(c2ccc(C)c(C(F)(F)F)c2)c2nnnn2C)n1` [Example 118] are within 0.2 log units of each other in logp: 4.39 for the first, 4.56 for the second.

First: CCCCCOC(=O)Nc1ccnc(CON=C(c2ccc(C)c(C(F)(F)F)c2)c2nnnn2C)n1 [Example 122]
Second: Cc1ccc(C(F)(F)F)cc1C(=NOCc1cccc(N)n1)c1nnnn1C [Example 124]
The logp of the first is higher: 4.59 for the first, 1.73 for the second.

`Cc1cc(C)cc(C(=NOCc2cccc(N)n2)c2nnnn2C)c1` [Example 125] and `Cn1nnnc1C(=NOCc1cccc(N)n1)c1cc(F)cc(C(F)(F)F)c1` [Example 127] are within 0.2 log units of each other in logp: 1.81 for the first, 1.75 for the second.

`Cc1nc(N)cc(CON=C(c2ccc(F)c(Oc3ccccc3)c2)c2nnnn2C)n1` [Example 129] and `Cc1ccc(F)c(C(=NOCc2csc(N)n2)c2nnnn2C)c1` [Example 132] are within 0.2 log units of each other in logp: 1.75 for the first, 1.65 for the second.

Going from `Cc1ccc(C(F)(F)F)cc1C(=NOCc1csc(N)n1)c1nnnn1C` [Example 130] to `Cn1nnnc1C(=NOCc1csc(N)n1)c1cc(F)cc(C(F)(F)F)c1` [Example 131], the logp rises from 1.92 to 2.14.

`Cn1nnnc1C(=NOCc1cccc(N)n1)c1cc(C(F)(F)F)ccc1Cl` [Example 133] and `Cn1nnnc1C(=NOCc1cccc(N)n1)c1ccc(C(F)(F)F)c(Cl)c1` [Example 134] are within 0.2 log units of each other in Log p: 1.72 for the first, 1.9 for the second.

`Cc1cc(F)cc(C(=NOCc2cccc(N)n2)c2nnnn2C)c1` [Example 135] and `Cc1ccc(C(=NOCc2cccc(N)n2)c2nnnn2C)cc1F` [Example 137] are within 0.2 log units of each other in Log p: 1.46 for the first, 1.52 for the second.

`Cc1ccc(F)c(C(=NOCc2cccc(N)n2)c2nnnn2C)c1` [Example 136] and `Cc1cccc(C(=NOCc2cccc(N)n2)c2nnnn2C)c1F` [Example 138] are within 0.2 log units of each other in Log p: 1.4 for the first, 1.42 for the second.

Going from `Cc1nc(N)cc(CON=C(c2ccc(F)c(Oc3ccccc3)c2)c2nnn(C)n2)n1` [Example 139] to `Cn1nnc(C(=NOCc2csc(N)n2)c2ccc(F)c(Oc3ccccc3)c2)n1` [Example 140], the Log p rises from 1.73 to 2.23.

same assay, conditions: reversed phase HPLC column, pH 2.7, 0.1% formic acid in water / acetonitrile gradient 10% to 95%

`Cc1ccc(C(=NOCc2nccc(N)n2)c2nnnn2C)cc1C(F)(F)F` [Example 128, 2-{[({(1-methyl-1H-tetrazol-5-yl)[4-methyl-3-(trifluoromethyl)phenyl]methylidene}amino)oxy]methyl}pyrimidin-4-amine] showed a chromatographic logP of 1.7.
